Holding throughout (type): cell-based
Test [1] relates to primary AML cells. In words: proliferation assay of primary AML samples after 5-azacytidine treatment. The following applies: for inhibition of proliferation: Syk+ cells, FIG. 7A. As for the experimental part:
(§1) To evaluate the effect of certain chemotherapeutic agents on signal transduction through Syk and/or SHP-1, experiments were performed on primary AML samples. Primary leukemia cells were treated with 5-azacytidine for 4 days under otherwise normal cell culture growth conditions. The cells were then washed twice, and a proliferation assay was performed as described above. The basal level of proliferation (untreated cells) was considered as 100% and the percent change was calculated for each condition. Error bars indicate the SEM.

For the next test, the system named is Syk. In words: Syk expression in primary AML samples after 5-azacytidine treatment. As for the experimental part:
Based on these observations, we tested a panel of 25 primary AML samples for Syk expression using standard Western blotting and an anti-Syk or anti-ZAP-70 mouse monoclonal antibody from Santa Cruz Biochem.
as §1
Syk is not only an important protein kinase, but also a tumor suppressor. In many cancer cells, Syk is silenced by hypemethylation of the DNA encoding it. This hypermethylation can lead to absence of Syk expression and, as a result, to unresponsiveness of tumor cells to various treatments. To block possible hyper-methylation and restore Syk expression in Syk-negative primary AML samples, we used 5-azacytidine. Other hypomethylating agents could work as well. The results of the experiments are depicted in FIG. 7, Panels A-D.

The test system of a further test is SHP-1. The test is described as follows: SHP-1 expression in primary AML samples after 5-azacytidine treatment. Conditions: 2 of 5 SHP-1-negative primary AML samples.
Test [2] deals with primary AML cells. The test is described as follows: proliferative response of primary AML samples to GO. Conditions: for responsive samples: FIG. 3A. As for the experimental part: More specifically, for Panel A, colony formation assays were performed as follows: HL-60 cells were treated and cultured in 0.3% agarose in triplicate for each condition in the presence of 0.01 ug/ml of antibodies. After 14 days of culture, the number of colonies was enumerated in each dish. The basal level of colony formation (>400 per dish) was considered as 100% and the percentage of stimulation was calculated for each condition. Error bars in the figure indicate the SEM. Each graph is representative of at least 3 independent experiments. For Panel B, primary leukemia cells were cultured for 48 hours in the presence of 0.01 ug/ml of anti-CD33 mAb or control mouse IgG. Each bar in the figure summarizes (median) the proliferative response of that group. The basal level of untreated cell proliferation (CPM>5500 CPM) was considered as 0%. Inhibition was calculated as the percent change for that condition. Error bars indicate the SEM.
With the knowledge of the effect of a naked anti-CD33 antibody on Syk activation and cell proliferation or death, we investigated the effect of an immunotoxin (GO; Mylotarg® (Wyeth)) on these characteristics. GO was selected based on its approval status by the FDA. Proliferation assays were performed as described above. Various concentration of GO were added at the initiation of 48 hour culture. The basal levels of cell proliferation (untreated cells) were >10000 cpm and were considered as 100%. The percentage of change was calculated for each condition for each sample. Error bars indicate the SEM.

The subject of the next test is HL-60 cells. In words: proliferation assay of HL-60 cells transfected with Syk si-RNA or control RNA. Conditions: Syk si-RNA-transfected HL-60 cells versus control RNA treated or untreated cells, FIG. 4B. As for the experimental part:
To test whether there is a correlation between response of AML cells to CD33 ligation and/or GO treatment and the level of their Syk expression, “blocking” experiments were performed. In order to block Syk expression, we used Syk-si-RNA transfection. More specifically, for the results presented in FIGS. 4A and 4B, HL-60 cells were transfected with Syk si-RNA or control RNA and grown in cell culture under normal conditions for these cells. 72 hours post-transfection, cells were cultured in the presence of optimal ([…]) concentration of mAb, as disclosed above (FIG. 4A) or the indicated concentrations of Mylotarg® (Wyeth) (FIG. 4B). Proliferation assays were performed as described above. The basal level of proliferation was >10000 CPM (considered as 100%). Each point represents the percent change for that condition. Error bars indicate the SEM. Bars compared and marked with asterisk have a statistically significant difference. For FIG. 4C, HL-60 cells were transfected with Syk si-RNA or control RNA. After 72 hours of culture under typical culture conditions, cell lysates were prepared and used to generate immune precipitates with the appropriate mAb.

Turning to `Nc1ncn([C@@H]2O[C@H](CO)[C@@H](O)[C@H]2O)c(=O)n1` [5-azacytidine, 5-Azacytidine], the “level of inhibition of proliferation” value is given as “significantly higher” in the test on primary AML cells [1] (5-aza alone, Syk-positive or SHP-positive samples versus negative samples); “comparable to positive samples” in the test on primary AML cells [1] (Syk-negative or SHP-1-negative samples, 5-aza combined with Mylotarg); “comparable to positive samples” with primary AML cells [1] (Syk-negative or SHP-1-negative samples, 5-aza combined with anti-CD33 mAb). Further, the inhibition of proliferation result in the test on primary AML cells [1] (5-azacytidine 4 days combined with GO) and in the test on primary AML cells [1] (5-azacytidine 4 days combined with naked anti-CD33 antibody) was “increased inhibition of proliferation” each time. In the test on primary AML cells [1] (Syk- cells (non-responders) treated with the hypomethylating agent, FIG. 7B), the “effect of anti-CD33 antibodies on proliferation” value was “substantially increased”. The “samples with restored Syk expression” value in the test with Syk (5 of 15 Syk-negative primary AML samples) worked out at 33%. Also, in the test with Syk (Syk-positive samples (data not shown)), the “level of Syk expression” value is recorded as “un-changed”. In the test on SHP-1, the “samples with restored SHP-1” value is recorded as 40%.

Turning to gemtuzumab ozogamicin [GO], the responsive samples with primary AML cells [2] (Syk-negative primary AML samples) was 17%; in the test with primary AML cells [2] (Syk-positive primary AML samples) it was 83%. For the same molecule, the “level of inhibition of proliferation” value with primary AML cells [2] (Syk-positive samples versus Syk-negative samples, p<0.003) is listed as “higher than in Syk-negative samples”. For the same molecule, the proliferative response entry with primary AML cells [2] (both Syk-positive and Syk-negative samples, 48 hour culture, FIG. 3B) was “dose-dependent inhibition”. For the same molecule, in the test on HL-60 cells, the “response of proliferation to treatment” value is reported as “significantly lower response”.

These data come from patent publication US7977320B2, “Method of increasing efficacy of tumor cell killing using combinations of anti-neoplastic agents” (The Regents of the University of California, priority 2004, dated 2011).
